Measurements: patent publication US11439622B2 (OXFORD UNIVERSITY INNOVATION LIMITED, priority 2015, dated 2022)

What was measured:
Format in all cases: biochemical
[1] = biological target: NDM-1 (New Delhi metallo-β-lactamase-1) (Klebsiella pneumoniae, UniProt C7C422); assay: Enzyme inhibition assay, NDM-1; details: for IC50: read-out: pIC50 NDM-1 (converted)
Method: (§1) The biological activity of the compounds of the present invention was tested using standard assay protocols.^7 The following representative enzymes NDM-1 (New Delhi metallo-β-lactamase-1), IMP-1 (Imipenemase-1) and VIM-2 (Veronese metallo-β-lactamase-2) were selected from different clinically relevant B1 metallo-β-lactamases.

IMP-1 (Imipenemase-1) = IMP-1 (Imipenemase-1) (Serratia marcescens, UniProt P52699); assay: Enzyme inhibition assay, IMP-1; details: for IC50: read-out: pIC50 IMP-1 (converted)
Method: as §1

[2] = biological target: VIM-2 (Veronese metallo-β-lactamase-2) (Escherichia coli, UniProt Q5U7L7); assay: Enzyme inhibition assay, VIM-2; details: for IC50: read-out: pIC50 VIM-2 (converted)
Method: as §1

IMP-1 (Imipenemase-1), sequence (P52699 19-246, looked up, species assumed): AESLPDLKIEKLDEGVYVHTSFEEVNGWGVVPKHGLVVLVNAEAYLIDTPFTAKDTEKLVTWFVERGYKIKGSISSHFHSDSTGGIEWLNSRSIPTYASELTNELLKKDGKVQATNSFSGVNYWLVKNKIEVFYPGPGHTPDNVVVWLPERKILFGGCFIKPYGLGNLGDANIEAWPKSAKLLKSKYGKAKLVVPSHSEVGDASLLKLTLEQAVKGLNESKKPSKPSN
NDM-1 (New Delhi metallo-β-lactamase-1), sequence (C7C422 29-270, looked up, species assumed): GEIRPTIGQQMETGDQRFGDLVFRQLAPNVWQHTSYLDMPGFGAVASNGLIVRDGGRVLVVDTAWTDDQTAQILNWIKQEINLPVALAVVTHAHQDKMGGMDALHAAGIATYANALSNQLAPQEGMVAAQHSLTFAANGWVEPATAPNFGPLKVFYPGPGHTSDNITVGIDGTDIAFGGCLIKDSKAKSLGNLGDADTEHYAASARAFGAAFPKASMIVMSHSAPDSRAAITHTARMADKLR

| IC50 [1] [µM] | IC50 (IMP-1 (Imipenemase-1)) [µM] | IC50 [2] [µM] | pIC50 NDM-1 [1] | pIC50 IMP-1 (IMP-1 (Imipenemase-1)) | pIC50 VIM-2 [2] | Structure (SMILES) |
| --- | --- | --- | --- | --- | --- | --- |
| 0.00501 | 0.0316 | 0.0316 | – | – | – | CC(C)c1cccc2c(-c3ccccc3)c(C(=O)O)[nH]c12 [Example 66, 7-isopropyl-3-phenyl-1H-indole-2-carboxylic acid] |
| 0.00251 | 0.0398 | 0.02 | – | – | – | CC(C)c1cccc2c(-c3ccc(S(C)(=O)=O)cc3)c(C(=O)O)[nH]c12 [Example 67, 7-isopropyl-3-(4-(methylsulfonyl)phenyl)-1H-indole-2-carboxylic acid] |
| 0.00631 | 0.0398 | 0.0316 | – | – | – | CC(C)c1cccc2c(-c3ccncc3)c(C(=O)O)[nH]c12 [Example 68, 7-isopropyl-3-(pyridin-4-yl)-1H-indole-2-carboxylic acid] |
| 0.00251 | 0.0126 | 0.00794 | – | – | – | CC(C)c1cccc2c(-c3ccc(C(N)=O)cc3)c(C(=O)O)[nH]c12 [Example 69, 3-(4-carbamoylphenyl)-7-isopropyl-1H-indole-2-carboxylic acid] |
| 0.00251 | 0.01 | 0.0794 | – | – | – | CC(C)c1cccc2c(-c3ccc(N4CCOCC4)cc3)c(C(=O)O)[nH]c12 [Example 70, 7-isopropyl-3-(4-morpholinophenyl)-1H-indole-2-carboxylic acid] |
| 0.00398 | 0.0398 | 0.02 | – | – | – | CC(C)c1cccc2c(-c3ccc(Cl)cc3)c(C(=O)O)[nH]c12 [Example 71, 3-(4-chlorophenyl)-7-isopropyl-1H-indole-2-carboxylic acid] |
| 0.0501 | 2.51 | 0.0126 | – | – | – | CC(C)c1cccc2c(-c3ccccc3Cl)c(C(=O)O)[nH]c12 [Example 72, 3-(2-chlorophenyl)-7-isopropyl-1H-indole-2-carboxylic acid] |
| 0.000355 | 0.0316 | 0.0316 | – | – | – | CC(C)c1cccc2c(-c3ccc(S(=O)(=O)N(C)C)cc3)c(C(=O)O)[nH]c12 [Example 73] |
| 0.000562 | 0.02 | 0.0794 | – | – | – | CC(C)c1cccc2c(-c3ccc(C(=O)N(C)C)cc3)c(C(=O)O)[nH]c12 [Example 74, 3-(4-(dimethylcarbamoyl)phenyl)-7-isopropyl-1H-indole-2-carboxylic acid] |
| 0.002 | 0.0251 | 0.01 | – | – | – | CC(C)c1cccc2c(-c3ccc4[nH]ncc4c3)c(C(=O)O)[nH]c12 [Example 75, 3-(1H-indazol-5-yl)-7-isopropyl-1H-indole-2-carboxylic acid] |
| 0.2 | 12.6 | 0.00631 | – | – | – | COc1cccc(-c2c(C(=O)O)[nH]c3c(C(C)C)cccc23)c1OC [Example 77, 3-(2,3-dimethoxyphenyl)-7-isopropyl-1H-indole-2-carboxylic acid] |
| 0.01 | 0.126 | 0.00398 | – | – | – | CC(C)c1cccc2c(-c3cc(F)cc(F)c3)c(C(=O)O)[nH]c12 [Example 78, 3-(3,5-difluorophenyl)-7-isopropyl-1H-indole-2-carboxylic acid] |
| 0.000501 | 0.0158 | 0.00398 | – | – | – | CC(C)c1cccc2c(-c3ccc(Cn4cccn4)cc3)c(C(=O)O)[nH]c12 [Example 79, 3-(4-((1H-pyrazol-1-yl)methyl)phenyl)-7-isopropyl-1H-indole-2-carboxylic acid] |
| 0.000631 | 0.02 | 0.01 | – | – | – | CC(C)c1cccc2c(-c3ccc(Cn4cncn4)cc3)c(C(=O)O)[nH]c12 [Example 80, 3-(4-((1H-1,2,4-triazol-1-yl)methyl)phenyl)-7-isopropyl-1H-indole-2-carboxylic acid] |
| 0.00158 | 0.1 | 0.0631 | – | – | – | CN(C)S(=O)(=O)c1ccc(-c2c(C(=O)O)[nH]c3c(CCOc4ccccc4)cccc23)cc1 [Example 81, 3-(4-(N,N-dimethylsulfamoyl)phenyl)-7-(2-phenoxyethyl)-1H-indole-2-carboxylic acid] |
| 0.00398 | 0.501 | 0.158 | – | – | – | Cc1c(Oc2ccccc2)ccc2c(-c3ccc(S(=O)(=O)N(C)C)cc3)c(C(=O)O)[nH]c12 [Example 82, 3-(4-(N,N-dimethylsulfamoyl)phenyl)-7-methyl-6-phenoxy-1H-indole-2-carboxylic acid] |
| 0.00398 | 0.0631 | 0.1 | – | – | – | CN(C)C(=O)c1ccc(-c2c(C(=O)O)[nH]c3c(CCOc4ccccc4)cccc23)cc1 [Example 83, 3-(4-(dimethylcarbamoyl)phenyl)-7-(2-phenoxyethyl)-1H-indole-2-carboxylic acid] |
| 0.0372 | 0.631 | 0.02 | – | – | – | O=C(O)c1[nH]c2c(CCOc3ccccc3)cccc2c1-c1ccc(Cl)cc1 [Example 84, 3-(4-chlorophenyl)-7-(2-phenoxyethyl)-1H-indole-2-carboxylic acid] |

| IC50 [1] [µM] | IC50 (IMP-1 (Imipenemase-1)) [µM] | IC50 [2] [µM] | pIC50 NDM-1 [1] | pIC50 IMP-1 (IMP-1 (Imipenemase-1)) | pIC50 VIM-2 [2] | Structure (SMILES) |
| --- | --- | --- | --- | --- | --- | --- |
| 0.1 | 1 | 0.158 | – | – | – | Cc1c(Oc2ccccc2)ccc2c(-c3ccc(Cl)cc3)c(C(=O)O)[nH]c12 [Example 85, 3-(4-chlorophenyl)-7-methyl-6-phenoxy-1H-indole-2-carboxylic acid] |
| 0.00741 | 0.646 | 0.575 | – | – | – | Cc1c(Oc2ccccc2)ccc2c(-c3ccc(C(=O)N(C)C)cc3)c(C(=O)O)[nH]c12 [Example 86, 3-(4-(dimethylcarbamoyl)phenyl)-7-methyl-6-phenoxy-1H-indole-2-carboxylic acid] |
| 0.00427 | 0.0537 | 0.0102 | – | – | – | CNS(=O)(=O)c1ccc(-c2c(C(=O)O)[nH]c3c(C(C)C)cccc23)cc1 [Example 88, 7-isopropyl-3-(4-(N-methylsulfamoyl)phenyl)-1H-indole-2-carboxylic acid] |
| 0.00339 | 0.0447 | 0.00724 | – | – | – | CC(C)c1cccc2c(-c3ccc(C(=O)O)cc3)c(C(=O)O)[nH]c12 [Example 91, 3-(4-carboxyphenyl)-7-isopropyl-1H-indole-2-carboxylic acid] |
| 0.00589 | 0.105 | 0.105 | – | – | – | CC(C)c1cccc2c(-c3ccc(CN4CCOCC4)cc3)c(C(=O)O)[nH]c12 [Example 94, 7-isopropyl-3-(4-(morpholinomethyl)phenyl)-1H-indole-2-carboxylic acid] |
| 0.01 | 13.2 | 0.407 | – | – | – | CC(C)c1cccc2c(-c3ccc(S(=O)(=O)N(C)C)cc3)c(-c3nnn[nH]3)[nH]c12 [Example 102, 4-[7-isopropyl-2-(1H-tetrazol-5-yl)-1H-indol-3-yl]-N,N-dimethyl-benzenesulfonamide] |
| 0.0794 | 79.4 | 3.16 | – | – | – | Cc1cccc2c(C3CCCCC3)c(C(=O)O)[nH]c12 [Example 103] |
| 0.251 | 50.1 | 12.6 | – | – | – | Cc1cccc2c(C3CCCC3)c(C(=O)O)[nH]c12 [Example 104, 3-cyclopentyl-7-methyl-1H-indole-2-carboxylic acid] |
| 0.0126 | 0.501 | 0.0501 | – | – | – | O=C(O)c1[nH]c2c(C3CC3)cccc2c1-c1ccc(F)cc1 [Example 106, 7-cyclopropyl-3-(4-fluorophenyl)-1H-indole-2-carboxylic acid] |
| 0.631 | 3.98 | 1.58 | – | – | – | Cc1cccc2c(Cc3ccc(Cl)cc3)c(C(=O)O)[nH]c12 [Example 107, 3-[(4-chlorophenyl)methyl]-7-methyl-1H-indole-2-carboxylic acid] |
| 0.0501 | 3.16 | 0.794 | – | – | – | O=C(O)c1[nH]c2c(CCO)cccc2c1-c1ccc(F)cc1 [Example 108, 3-(4-fluorophenyl)-7-(2-hydroxyethyl)-1H-indole-2-carboxylic acid] |
| 1.26 | > 100 | 0.0398 | – | – | – | COc1cccc(-c2c(C(=O)O)[nH]c3c(C)cccc23)c1OC [Example 116, 3-(2,3-dimethoxyphenyl)-7-methyl-1H-indole-2-carboxylic acid] |
| 1.26 | > 100 | 0.2 | – | – | – | Cc1noc(C)c1-c1c(C(=O)O)[nH]c2c(C)cccc12 [Example 117, 3-(3,5-dimethylisoxazol-4-yl)-7-methyl-1H-indole-2-carboxylic acid] |
| 2 | 79.4 | 15.8 | – | – | – | Cc1ccc2c(-c3ccc(F)cc3)c(C(=O)O)[nH]c2c1 [Example 119, 3-(4-fluorophenyl)-6-methyl-1H-indole-2-carboxylic acid] |
| > 20 | > 100 | 31.6 | – | – | – | Cc1cccc2c1cc(C(=O)O)n2-c1ccc(F)cc1 [Example 120, 1-(4-fluorophenyl)-4-methyl-1H-indole-2-carboxylic acid] |
| – | – | – | N.I. | N.I. | N.I. | CC(C)NC(=O)c1[nH]c2c(C(C)C)cccc2c1-c1ccc(S(=O)(=O)N(C)C)cc1 [Example 123, 3-(4-(N,N-dimethylsulfamoyl)phenyl)-N,7-diisopropyl-1H-indole-2-carboxamide] |
| – | – | – | N.I. | N.I. | N.I. | CC(C)c1cccc2c(-c3ccc(S(=O)(=O)N(C)C)cc3)c(C(=O)Nc3nccs3)[nH]c12 [Example 124, 3-(4-(N,N-dimethylsulfamoyl)phenyl)-7-isopropyl-N-(thiazol-2-yl)-1H-indole-2-carboxamide] |

| Structure (SMILES) | IC50 [1] [µM] | IC50 (IMP-1 (Imipenemase-1)) [µM] | IC50 [2] [µM] | pIC50 NDM-1 [1] | pIC50 IMP-1 (IMP-1 (Imipenemase-1)) | pIC50 VIM-2 [2] |
| --- | --- | --- | --- | --- | --- | --- |
| Cc1cccc2c(C3CCN(C(=O)OC(C)(C)C)CC3)c(C(=O)O)[nH]c12 [Example 105, 3-(1-tert-butoxycarbonyl-4-piperidyl)-7-methyl-1H-indole-2-carboxylic acid] | 0.158 | 31.6 | 2.51 | – | – | – |
